In test [1] the target is T1, TANK binding kinase (TBK1) (Homo sapiens, UniProt Q9UHD2).
T1 sequence (Q9UHD2 1-729): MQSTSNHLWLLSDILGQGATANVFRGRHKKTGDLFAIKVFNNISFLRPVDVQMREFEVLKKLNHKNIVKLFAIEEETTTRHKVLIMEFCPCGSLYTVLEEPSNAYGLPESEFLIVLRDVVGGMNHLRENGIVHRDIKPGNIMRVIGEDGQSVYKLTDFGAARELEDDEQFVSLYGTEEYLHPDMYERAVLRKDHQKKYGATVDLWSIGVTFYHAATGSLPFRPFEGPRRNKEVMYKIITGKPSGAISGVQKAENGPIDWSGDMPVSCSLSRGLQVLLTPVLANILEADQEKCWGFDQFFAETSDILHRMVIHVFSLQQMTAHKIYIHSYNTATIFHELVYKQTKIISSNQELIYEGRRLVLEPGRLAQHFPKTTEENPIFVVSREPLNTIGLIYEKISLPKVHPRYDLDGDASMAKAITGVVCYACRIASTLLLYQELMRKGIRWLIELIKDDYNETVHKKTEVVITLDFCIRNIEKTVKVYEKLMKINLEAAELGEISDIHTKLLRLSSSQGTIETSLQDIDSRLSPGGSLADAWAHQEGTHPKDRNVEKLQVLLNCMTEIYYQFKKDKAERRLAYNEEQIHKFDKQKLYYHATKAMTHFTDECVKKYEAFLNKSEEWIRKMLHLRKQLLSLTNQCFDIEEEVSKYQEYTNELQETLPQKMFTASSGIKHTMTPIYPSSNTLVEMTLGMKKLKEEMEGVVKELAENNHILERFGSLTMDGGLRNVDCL
Put plainly: TBK1 enzyme assay (384-well Flashplate kinase assay). The following applies: 10 μM ATP, 120 Min at 30° C. The class given is biochemical. The procedure, abridged: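 Radiometric Flashplate assay: 0.6 nM TBK1, 800 nM biotinylated MELK-derived peptide and 10 μM ATP with 33P-ATP, 120 min at 30 °C in MOPS/Mg-acetate buffer pH 7.5. Stopped with EDTA; nonspecific signal defined with 100 nM staurosporine; IC50 from counted radioactivity.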

A further test has as its target T2, IKKε (Homo sapiens, UniProt Q14164).
T2 sequence (Q14164 1-716): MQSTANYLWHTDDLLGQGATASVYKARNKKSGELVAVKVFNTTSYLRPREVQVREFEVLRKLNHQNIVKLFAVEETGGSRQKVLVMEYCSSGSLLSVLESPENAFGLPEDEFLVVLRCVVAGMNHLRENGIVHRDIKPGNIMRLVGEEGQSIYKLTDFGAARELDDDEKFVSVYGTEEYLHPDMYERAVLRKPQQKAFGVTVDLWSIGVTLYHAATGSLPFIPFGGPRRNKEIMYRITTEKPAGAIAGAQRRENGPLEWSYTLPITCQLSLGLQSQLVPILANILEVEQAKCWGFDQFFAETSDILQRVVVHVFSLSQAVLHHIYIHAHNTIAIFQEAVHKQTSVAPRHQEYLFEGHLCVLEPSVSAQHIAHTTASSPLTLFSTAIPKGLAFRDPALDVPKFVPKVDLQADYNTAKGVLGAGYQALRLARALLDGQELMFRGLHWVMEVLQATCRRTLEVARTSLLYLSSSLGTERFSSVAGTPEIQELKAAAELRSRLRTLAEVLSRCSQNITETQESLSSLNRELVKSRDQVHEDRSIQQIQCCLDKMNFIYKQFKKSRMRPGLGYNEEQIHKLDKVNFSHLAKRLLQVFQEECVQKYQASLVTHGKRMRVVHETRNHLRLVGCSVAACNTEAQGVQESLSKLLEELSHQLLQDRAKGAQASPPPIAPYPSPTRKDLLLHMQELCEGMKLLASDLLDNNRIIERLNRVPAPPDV
Put plainly: IKKε kinase assay (384-well Flashplate). The test is classed as biochemical. The following applies: 10 μM ATP, 2 hours at 30° C.; read-out: IKKε enzyme assay IC50. The procedure, abridged:
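1 nM IKKε with 800 nM biotinylated IκBα(19-42) peptide and 10 μM ATP spiked with ^33P-ATP, 2 h at 30 °C in MOPS buffer pH 7.5. EDTA stop, Flashplate capture, washes, then radioactivity counted; IC50 derived.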

The values below come from US9045493B2, “Furo[3,2-b]- and thieno[3,2-b]pyridin derivatives” (Merck Patent GmbH, priority 2012, dated 2015).

For the compound `N#Cc1cc(-c2ccnc3cc(-c4ccc(C(=O)NCCN5CCNC5=O)cc4)oc23)ccc1OC1CCOCC1` [Compound A77], the IC50 (in test [1]; on IKKε) was under 300 nM throughout.
On to `N#Cc1cc(-c2ccnc3cc(-c4ccc(C(=O)NCCN5CCCC5)cc4)oc23)ccc1OC1CCOCC1` [Compound A78], for which the IC50 (in test [1]; at IKKε) was under 300 nM each time.
On to `N#Cc1cc(-c2ccnc3cc(-c4ccc(C(=O)NCCN5CCOCC5)cc4)oc23)ccc1OC1CCOCC1` [Compound A79], for which the IC50 (in test [1]; on IKKε) was under 300 nM throughout.
Consider `CC(=O)NCCNC(=O)c1ccc(-c2cc3nccc(-c4ccc(OC5CCOCC5)c(C#N)c4)c3o2)cc1` [Compound A80], for which the IC50 (in test [1]; on IKKε) was under 300 nM in each case.
As for `N#Cc1cc(-c2ccnc3cc(-c4ccc(C(=O)NCCc5cccnc5)cc4)oc23)ccc1OC1CCOCC1` [Compound A81], the IC50 in test [1] is 300 to 3000 nM; on IKKε it was under 300 nM.
Regarding `N#Cc1cc(-c2ccnc3cc(-c4ccc(C(=O)NC5COc6ccccc6C5)cc4)oc23)ccc1OC1CCOCC1` (centres unmarked) [Compound A82], the concentration for half-maximal inhibition (IC50) (in test [1]; on IKKε) was 300 to 3000 nM throughout.
Turning to `N#Cc1cc(-c2ccnc3cc(-c4ccc(C(=O)NCCN5CCC(F)(F)CC5)cc4)oc23)ccc1OC1CCOCC1` [Compound A83], the IC50 (in test [1]; on IKKε) was under 300 nM in each case.
For `N#Cc1cc(-c2ccnc3cc(-c4ccc(C(=O)N5CCN(CCO)CC5)cc4)oc23)ccc1OC1CCOCC1` [Compound A84], the IC50 (in test [1]; at IKKε) was under 300 nM throughout.
Take `N#Cc1cc(-c2ccnc3cc(-c4ccc(C(=O)NCCC(F)(F)F)cc4)oc23)ccc1OC1CCOCC1` [Compound A85]: the IC50 (in test [1]; at IKKε) was 300 to 3000 nM in each case.
Consider `N#Cc1cc(-c2ccnc3cc(-c4ccc(C(=O)N5CCNC(=O)CC5)cc4)oc23)ccc1OC1CCOCC1` [Compound A86], for which the IC50 (in test [1]; at IKKε) was under 300 nM throughout.
On to `COc1cc(-c2cc3nccc(-c4ccc(OC5CCOCC5)c(C#N)c4)c3o2)ccc1C(=O)NCCN1CCNC1=O` [Compound A87], for which the IC50 (in test [1]; at IKKε) was under 300 nM in each case.
On to `COc1cc(-c2cc3nccc(-c4ccc(OC5CCOCC5)c(C#N)c4)c3o2)ccc1C(=O)NC1CCCN(C)C1` (centres unmarked) [Compound A88], for which the IC50 (in test [1]; on IKKε) was under 300 nM throughout.
Turning to `COc1cc(-c2cc3nccc(-c4ccc(OC5CCOCC5)c(C#N)c4)c3o2)ccc1C(=O)N1CCN(CCO)CC1` [Compound A89], the 50% inhibitory concentration (IC50) (in test [1]; at IKKε) was under 300 nM in each case.
Take `COc1cc(-c2cc3nccc(-c4ccc(OC5CCOCC5)c(C#N)c4)c3o2)ccc1C(=O)NCCN1CCC(F)(F)CC1` [Compound A90]: the IC50 (in test [1]; on IKKε) was under 300 nM throughout.
As for `COc1cc(-c2cc3nccc(-c4ccc(OC5CCOCC5)c(C#N)c4)c3o2)ccc1C(=O)N1CCNC(=O)CC1` [Compound A91], the IC50 (in test [1]; on IKKε) was under 300 nM each time.
As to `COc1cc(-c2cc3nccc(-c4ccc(OC5CCOCC5)c(C#N)c4)c3o2)ccc1C(=O)N1CC[C@H](O)C1` [Compound A92], the IC50 (in test [1]; on IKKε) was under 300 nM in each case.
Regarding `COc1cc(-c2cc3nccc(-c4ccc(OC5CCOCC5)c(C#N)c4)c3o2)ccc1C(=O)NCC(N)=O` [Compound A93], the IC50 (in test [1]; at IKKε) was under 300 nM throughout.
Regarding `COc1cc(-c2cc3nccc(-c4ccc(OC5CCOCC5)c(C#N)c4)c3o2)ccc1C(=O)N[C@H]1CCCNC1` [Compound A94], the IC50 (in test [1]; at IKKε) was under 300 nM in each case.
Consider `CN(CCO)C(=O)c1ccc(-c2cc3nccc(-c4ccc(OC5CCOC5)c(C#N)c4)c3s2)cc1` (centres unmarked) [Compound A95], for which the half-maximal inhibitory concentration (IC50) (in test [1]; at IKKε) was under 300 nM throughout.
For the compound `N#Cc1cc(-c2ccnc3cc(-c4cnn(C5CCNCC5)c4)sc23)ccc1OC1CCOCC1` [Compound A96], the IC50 (in test [1]; at IKKε) was under 300 nM each time.
For the compound `N#Cc1cc(-c2ccnc3cc(-c4cnn(C5CCN(CCO)CC5)c4)sc23)ccc1OC1CCOCC1` [Compound A97], the IC50 (in test [1]; at IKKε) was under 300 nM in each case.
Consider `COc1cc(-c2cc3nccc(-c4ccc(OC5CCOCC5)c(C#N)c4)c3o2)ccc1C(=O)N1CC[C@@H](O)C1` [Compound A98], for which the IC50 (in test [1]; at IKKε) was under 300 nM each time.
Turning to `COc1cc(-c2cc3nccc(-c4ccc(OC5CCOCC5)c(C#N)c4)c3o2)ccc1C(=O)NC1CCN(C)CC1` [Compound A99], the IC50 (in test [1]; on IKKε) was under 300 nM each time.
On to `COc1cc(-c2cc3nccc(-c4ccc(OC5CCOC5)c(C#N)c4)c3s2)ccc1C(=O)N1CCNCC1` (centres unmarked) [Compound A100], for which the IC50 (in test [1]; at IKKε) was under 300 nM in each case.
For the compound `COc1cc(-c2cc3nccc(-c4ccc(OC5CCOCC5)c(C#N)c4)c3o2)ccc1C(=O)N1CCC(O)CC1` [Compound A101], the IC50 (in test [1]; at IKKε) was under 300 nM in each case.
Consider `COc1cc(-c2cc3nccc(-c4ccc(OC5CCOCC5)c(C#N)c4)c3o2)ccc1C(=O)N(C)C1CCOCC1` [Compound A102], for which the IC50 (in test [1]; on IKKε) was under 300 nM each time.
For `COc1cc(-c2cc3nccc(-c4ccc(OC5CCOCC5)c(C#N)c4)c3o2)ccc1C(=O)N1CCOC(CCO)C1` (centres unmarked) [Compound A103], the IC50 (in test [1]; on IKKε) was under 300 nM throughout.
Turning to `COc1cc(-c2cc3nccc(-c4ccc(OC5CCOCC5)c(C#N)c4)c3o2)ccc1C(=O)N1CCOCC1` [Compound A104], the IC50 (in test [1]; on IKKε) was under 300 nM in each case.
For the compound `COc1cc(-c2cc3nccc(-c4ccc(OC5CCOCC5)c(C#N)c4)c3o2)ccc1C(=O)NC1CCOCC1` [Compound A105], the IC50 (in test [1]; on IKKε) was under 300 nM each time.
Regarding `COc1cc(-c2cc3nccc(-c4ccc(OC5CCOCC5)c(C#N)c4)c3o2)ccc1C(=O)N[C@@H]1CCCNC1` [Compound A106], the IC50 (in test [1]; at IKKε) was under 300 nM each time.
In the case of `CN(CCO)C(=O)c1ccc(-c2cc3nccc(-c4ccc(OC5CCOCC5)c(C#N)c4)c3o2)c(F)c1` [Compound A107], the IC50 (in test [1]; on IKKε) was under 300 nM in each case.
As to `N#Cc1cc(-c2ccnc3cc(-c4cnn(CCO)c4)sc23)ccc1OC1CCOCC1` [Compound A108], the IC50 (in test [1]; at IKKε) was under 300 nM each time.
Regarding `COc1cc(-c2cc3nccc(-c4ccc(OC5CCOCC5)c(C#N)c4)c3o2)ccc1C(=O)N1CCNC(=O)C1` [Compound A109], the IC50 (in test [1]; at IKKε) was under 300 nM throughout.
Regarding `N#Cc1cc(-c2ccnc3cc(-c4ccc(C(=O)N5CCNCC5)cc4F)oc23)ccc1OC1CCOCC1` [Compound A111], the IC50 (in test [1]; at IKKε) was under 300 nM in each case.
With `N#Cc1cc(-c2ccnc3cc(-c4ccc(C(=O)N5CCNC(=O)CC5)cc4F)oc23)ccc1OC1CCOCC1` [Compound A112], the IC50 (in test [1]; on IKKε) was under 300 nM each time.
As for `N#Cc1cc(-c2ccnc3cc(-c4ccc(C(=O)N5CCC(O)CC5)cc4F)oc23)ccc1OC1CCOCC1` [Compound A113], the half-inhibitory concentration (IC50) (in test [1]; at IKKε) was under 300 nM each time.
As to `N#Cc1cc(-c2ccnc3cc(-c4ccc(C(=O)N5CCOCC5)cc4F)oc23)ccc1OC1CCOCC1` [Compound A114], the IC50 (in test [1]; at IKKε) was under 300 nM each time.
